Measured values reported in patent US20240409534A1, “CRYSTAL FORM OF METHYLPYRAZOLE-SUBSTITUTED PYRIDOIMIDAZOLE COMPOUND AND PREPARATION METHOD THEREFOR” (priority 2021, published 2024).
pIC50: −log10 of the molar value. Where two headings read alike, the source gives them in different places.

Legend:
[1] = Pharmacokinetic evaluation in SD rats, intravenous and intragastric (Experimental Embodiment 3); type: in vivo; settings: rat, plasma; for bioavailability: intragastric administration, read-out: drug bioavailability; for Cmax: read-out: peak concentration (Cmax); for Tmax: read-out: peak time (Tmax); for Vd: read-out: apparent volume of distribution at steady state (Vdss); for half-life: read-out: elimination half-life (T1/2) (converted); for clearance: read-out: plasma clearance (Cl)
[2] = system: bladder cancer cells RT112/84 with high expression of FGFR3; assay: Cell proliferation inhibition, CellTiter-Glo, RT-112/84; type: cell-based; settings: Homo sapiens, RT112/84, 72 h, RT-112/84, cultured for 3 days
From the text: The compounds of the present disclosure can target and inhibit FGFR and VEGFR pathways, and inhibit tumor cell growth by inhibiting VEGF/VEGFR and FGF/FGFR signaling pathways. In this experiment, human non-small cell lung cancer cells NCI-H1581 with high expression of FGFR1, gastric cancer cells SNU-16 with high expression of FGFR2, and human bladder cancer cells RT112/84 with high expression of FGFR3 were selected. In this experiment, the inhibitory effect of compounds on cell proliferation was investigated by detecting the effect of the compounds of the present disclosure on the cell viability in vitro in the tumor cell lines NCI-H1581, SNU-16 and RT-112/84.
Regular passage, and cells in logarithmic growth phase were taken for plating.
• (1) Cells were stained with trypan blue and viable cells were counted. • (2) The cell concentration was adjusted to an appropriate concentration.
• (3) 90 μL of cell suspension per well was added to a culture plate, and cell-free culture solution was added to the blank control well. • (4) The plate was cultured overnight in a 37° C., 5% CO2 incubator with 100% relative humidity.
• (1) Preparation of 10× compound working solution: 78 μL of cell culture medium was added to a V-bottom 96-well plate, and 2 μL of compound was pipetted from a 400× compound storage plate and added to the cell culture medium of the 96-well plate. […]

[3] = po, female SD rats, single intragastric administration, 10 mg/kg
[4] = po, female SD rats, single intragastric administration, 30 mg/kg
[5] = po, female SD rats, single intragastric administration, 100 mg/kg
[6] = po, male SD rats, single intragastric administration, 10 mg/kg
[7] = po, male SD rats, single intragastric administration, 30 mg/kg
[8] = po, male SD rats, single intragastric administration, 100 mg/kg
[9] = female SD rats, single intravenous injection of 1 mg/kg
[10] = male SD rats, single intravenous injection of 1 mg/kg

`CS(=O)(=O)O.Cn1cc(-c2ccn3c(-c4cc(NS(C)(=O)=O)nc(-c5ccc(F)cc5F)c4)cnc3c2)cn1` showed a bioavailability ([1]; po, female SD rats, 10 mg/kg) of 50.3%, an AUC(0-t) [1, 3] of 24.8 µM·h and a Cmax [1, 3] of 9.17 µM. It also gave a Tmax [1, 3] of 40 min, an AUC(0-t) [1, 4] of 65.6 µM·h and a Cmax [1, 4] of 24.5 µM. The Tmax [1, 4] was 60 min, the AUC(0-t) [1, 5] was 125 µM·h and the Cmax [1, 5] was 27.4 µM. For the same compound, the Tmax [1, 5] was 30 min, the bioavailability ([1]; po, male SD rats, 10 mg/kg) was 18% and the AUC(0-t) [1, 6] was 7.15 µM·h. For the same compound, the Cmax [1, 6] was 3.78 µM, the Tmax [1, 6] was 30 min and the AUC(0-t) [1, 7] was 38.2 µM·h. It also gave a Cmax [1, 7] of 16.7 µM, a Tmax [1, 7] of 60 min and an AUC(0-t) [1, 8] of 113 µM·h. The Cmax [1, 8] was 19.9 µM, the Tmax [1, 8] was 50 min and the AUC(0-t) [1, 9] was 4.93 µM·h. The Vd [1, 9] was 0.366 L/kg, the half-life [1, 9] was 45.9 min and the clearance [1, 9] was 7.03 mL/min/kg. The AUC(0-t) [1, 10] was 3.98 µM·h, the Vd [1, 10] was 0.419 L/kg and the half-life [1, 10] was 40.5 min. For the same compound, the clearance [1, 10] was 8.78 mL/min/kg and the pIC50 [2] was 6.78.
